Molecular target: Adenylate cyclase
Experiment: Compound was tested for the adenylate cyclase stimulation
Assay type: protein assay

## Oc1cc2c(cc1O)[C@@H](C1CCCCC1)CNCC2
  EC50: > 0.00001 M

## Oc1cc2c(cc1O)CCNCC2
  EC50: 5.2e-06 M

Source: ChEMBL document CHEMBL1126151, “A study on the contribution of the 1-phenyl substituent to the molecular electrostatic potentials of some benzazepines in relation to selective dopamine D-1 receptor activity” (J Med Chem, 1992)
